Experimental data reported in US4080381A, “Water soluble tertiary amine boranes” (Mine Safety Appliances Company, priority 1976, dated 1978).
In brackets after ≈: the same amount, converted by molar mass. Each block holds one compound with its values, some of them ahead of it.

Experiments:
[1] = water solubility of the amine boranes; format: physicochemical
Procedure: Two Hundred milliliters of distilled dimethylsulfide (DMS) and 122.5 g (523.5 mmol) of CH3 O(C2 H4 O)3 C2 H4 N(CH3)2 were added to a one liter three necked flask equipped with a magnetic stirring bar, a thermometer and a 250 ml pressure equalizing dropping funnel. 41.4 grams (523.5 mmol) of dimethylsulfide borane (DMSB) was added to the funnel. The DMSB was added dropwise over the next hour while maintaining the reaction vessel temperature between 7°-15° C with ice water cooling. After the reaction was complete, the DMS solvent was removed under vacuum.
(1) 62.0 g (530 mmol) of CH3 CH2 OC2 H4 N(CH3)2 and 41.7 g (530 mmol) of DMSB were reacted in the same manner as example 1.
33.7 g (229.2 mmol) of CH3 OC2 H4 OC2 H4 N(CH3)2 and 18.1 g (230 mmol) of DMSB were reacted in the same manner as example (1). The resulting liquid amine borane has an approximate water solubility of 200 g/l of solution.
113.2 g (1099 mmol) of CH3 OC2 H4 N(CH3)2 and 87.3 g (1099 mmol) DMSB were reacted in the same manner as example 1. […] Inert solvents, such as hydrocarbon or ether solvents, can be used partially or wholly in place of the DMS. Temperature, pressure and reaction proportions are not critical, although it is generally most convenient to use stoichimetric proportions at atmospheric pressure and room temperature or below.

[2] = electroless gold plating: reduction of gold salt solution on palladium chloride activated nickel plate; conditions: mixed with KAuCl4 solution, pH 12.5
Procedure: The amine boranes of this invention are useful as reducing agents in aqueous solutions. For example, solutions of gold salts are reduced by the water soluble amine boranes to plate gold on a catalytically active surface contacted with the solution, as is more fully described in the above referenced co pending application. To illustrate, the pH of one hundred ml of a 3.0 g/l solution of KAuCl4 was raised to 12.5 by the addition of NaOH. In a separate beaker, the pH of 100 ml of a 2.00g/l solution of CH3 OCH2 CH2 N(CH3)2 :BH3 was also raised to 12.5 by the addtion of NaOH. […] A palladium chloride activated substrate of nickel plate was immersed in the stirred bath for one hour at room temperature.

solubility in water ([1]; in water at 25° C): 17 mg/mL (≈ 130 mM)
SMILES: [BH3-][N+](C)(C)CCOCC [Example 2]

limiting solubility in water ([1]; in water): 38 g/l of solution
appearance and stability of mixed plating solution [2]: clear and stable
SMILES: [BH3-][N+](C)(C)CCOC [Example 4]

approximate water solubility ([1]; in water): ~200 g/l of solution
SMILES: [BH3-][N+](C)(C)CCOCCOC [Example 3]

water solubility (in words) ([1]; in water): very soluble in water
SMILES: [BH3-][N+](C)(C)CCOCCOCCOCCOC [Example 1]
